Experimental findings from patent publication US20070238098A1, “Method and Kit for Predicting Adverse Side Effects of Paclitaxel Therapy” (priority 2003, published 2007) are described below.

This series relates to breast cancer patients. Kind of series: clinical study of paclitaxel preoperative chemotherapy: adverse side effects graded by NCI-CTC. The conditions noted are these: 54 breast cancer patients, stage II or IIIa; 80 mg/m paclitaxel by intravenous infusion over 1 hour, once a week for 12 weeks. The format is in vivo, human. As for the experimental part:
54 breast cancer patients were registered in a clinical study of paclitaxel preoperative chemotherapy. The following summarizes the criteria for patient selection. 1) Breast cancer patients age 70 or younger in stage II or IIIa as indicated by histopathological testing; and, 2) suitable physiological function (WBC >4,000 mm^3, platelet count […], hemoglobin level >10 g/dl, serum creatinine concentration <1.2 mg/dl, serum total bilirubin level <1.5 mg/dl, GOT/GPT <60/70). Patients who received proceeding chemotherapy or radiation therapy were excluded. Namely, all 54 patients who participated in this clinical study of paclitaxel preoperative chemotherapy were nearly at the same stage either clinically or histologically, and had no prior history of chemotherapy. […]
White blood cell count, red blood cell count, hemoglobin level and platelet count were measured weekly for each patient to evaluate the presence or absence of adverse side effects. Adverse side effects observed during the course of therapy were evaluated and graded based on the Common Toxicity Criteria of the US National Cancer Institute (NCI-CTC) (see Trotti, A., et al., Common toxicity criteria: version 2.0—an improved reference for grading the acute effects of cancer treatment: impact on radiotherapy, Int. J. Radiat. Oncol. Biol. Phys., 47: 13-47, 2000). […]

Take `CC(=O)O[C@H]1C(=O)[C@@]2(C)[C@H]([C@H](OC(=O)c3ccccc3)[C@]3(O)C[C@H](OC(=O)[C@H](O)[C@@H](NC(=O)c4ccccc4)c4ccccc4)C(C)=C1C3(C)C)[C@]1(OC(C)=O)CO[C@@H]1C[C@@H]2O` [paclitaxel]: the “granulocytopenia observed (most frequently observed adverse side effect; NCI-CTC grade 1 to 4)” value is given as 24 patients.
